Test results as given in US12692264B2, “Pyrimidine or pyridine derivative, preparation method therefor, and application thereof in pharmacy” (ABBISKO THERAPEUTICS CO., LTD., priority 2021, dated 2026).

Experiments:
Type in all cases: cell-based
A431 (EGFR-WT) = test: Cell proliferation study (CellTiter-Glo, 72 hrs), A431; settings: Homo sapiens, A-431, A431 cells, CTG, * = average of multiple measurements
Experimental: (§1) (I) Reagents and Materials
(§2) • Fetal bovine serum FBS (GBICO, Cat #10099-141); • CellTiter-Glo® luminescent cell viability assay kit (Promega, Cat #G7572); • Black transparent flat-bottom 96-well plate (Corning®, Cat #3603). (II) Instruments • SpectraMax multi-label microplate reader MD, 2104-0010A; • Carbon dioxide incubator, Thermo Scientific 3100 series; • Biological safety cabinet, Thermo Scientific, 1300 series model A2; • Inverted microscope, Olympus, CKX41SF; • Siemens refrigerator KK25E76T1. (III) Cell Lines and Culture Conditions
(§3) (IV) Experimental Procedures 1. Cell Culture and Inoculation: • (1) Cells in the logarithmic growth phase were harvested and counted using a […]. The cell viability was determined by the trypan blue dye exclusion method to ensure cell viability above 90%. • (2) The cell concentration was adjusted to reach a desired final density; 90 μL of cell suspension was added to a 96-well plate. • (3) The cells were incubated overnight in the 96-well plate at 37° C., 5% CO2 and with 95% humidity. 2. T0 Benchmark Data: • (1) 10 μL of PBS was added to each well of the TO plate containing the cells. • (2) The CTG reagent was thawed and the cell plate was equilibrated to room temperature for 30 min. • (3) An equal volume of CTG solution was added to each well. • (4) The cells were lysed by shaking on an orbital shaker for 5 min. • (5) The cell plate was left to stand at room temperature for 20 min to stabilize the fluorescence signal. • (6) The fluorescence signal values of TO were read. 3. Dilution and Addition of Compounds • (1) According to the compound information table, a corresponding volume of DMSO was added to the corresponding compound powder to prepare a 10 mM stock solution. • (2) A 1000-fold, 3.16-fold-diluted compound solution was prepared. • (3) The 1000× diluted compound solution was diluted 100-fold with PBS to prepare a 10-fold compound solution with a maximum concentration of 10 μM, including 9 concentrations, with 3.16-fold dilution, and 10 μL of the medicament solution was added to each well of the 96-well plate to seed the cells. Triplicate wells were set for each compound concentration, with a final concentration of DMSO being 0.1%. • (4) The cells were placed in the 96-well plate containing the medicament at 37° C., 5% CO2 and with 95% humidity, and cultured for 72 hrs before CTG analysis. 4. Fluorescence Signal Reading • (1) The CTG reagent was thawed and the cell plate was equilibrated to room temperature for 30 min. • (2) An equal volume of CTG solution was added to each well. • (3) The cells were lysed by shaking on an orbital shaker for 5 min. • (4) The cell plate was left to stand at room temperature for 20 min to stabilize the fluorescence signal. • (5) The fluorescence values were read. 5. Data Processing
(§4) Data were analyzed using GraphPad Prism 7.0 software and fitted data were regressed using non-linear S-curves to obtain dose-response curves from which IC50 values (in nM) were calculated.

[1] = target: Ba/F3 EGFR-D770-N771ins_SVD (Homo sapiens, UniProt P00533, DUP768-770, cells depend on it); test: Cell proliferation study (CellTiter-Glo, 72 hrs), Ba/F3 EGFR-D770-N771ins_SVD; settings: CTG, * = average of multiple measurements, read-out: Ba/F3 EGFR-D770-N771ins_SVD IC50
Experimental: as §1, §2, §3, §4

[2] = target: Ba/F3 EGFR-V769_D770insASV (Homo sapiens, UniProt P00533, DUP767-769, cells depend on it); test: Cell proliferation study (CellTiter-Glo, 72 hrs), Ba/F3 EGFR-V769_D770insASV; settings: CTG, * = average of multiple measurements, read-out: Ba/F3 EGFR-V769_D770insASV IC50
Experimental: as §1, §2, §3, §4

Sequence of Ba/F3 EGFR-D770-N771ins_SVD (P00533 with tags, fused parts or gaps DUP768-770): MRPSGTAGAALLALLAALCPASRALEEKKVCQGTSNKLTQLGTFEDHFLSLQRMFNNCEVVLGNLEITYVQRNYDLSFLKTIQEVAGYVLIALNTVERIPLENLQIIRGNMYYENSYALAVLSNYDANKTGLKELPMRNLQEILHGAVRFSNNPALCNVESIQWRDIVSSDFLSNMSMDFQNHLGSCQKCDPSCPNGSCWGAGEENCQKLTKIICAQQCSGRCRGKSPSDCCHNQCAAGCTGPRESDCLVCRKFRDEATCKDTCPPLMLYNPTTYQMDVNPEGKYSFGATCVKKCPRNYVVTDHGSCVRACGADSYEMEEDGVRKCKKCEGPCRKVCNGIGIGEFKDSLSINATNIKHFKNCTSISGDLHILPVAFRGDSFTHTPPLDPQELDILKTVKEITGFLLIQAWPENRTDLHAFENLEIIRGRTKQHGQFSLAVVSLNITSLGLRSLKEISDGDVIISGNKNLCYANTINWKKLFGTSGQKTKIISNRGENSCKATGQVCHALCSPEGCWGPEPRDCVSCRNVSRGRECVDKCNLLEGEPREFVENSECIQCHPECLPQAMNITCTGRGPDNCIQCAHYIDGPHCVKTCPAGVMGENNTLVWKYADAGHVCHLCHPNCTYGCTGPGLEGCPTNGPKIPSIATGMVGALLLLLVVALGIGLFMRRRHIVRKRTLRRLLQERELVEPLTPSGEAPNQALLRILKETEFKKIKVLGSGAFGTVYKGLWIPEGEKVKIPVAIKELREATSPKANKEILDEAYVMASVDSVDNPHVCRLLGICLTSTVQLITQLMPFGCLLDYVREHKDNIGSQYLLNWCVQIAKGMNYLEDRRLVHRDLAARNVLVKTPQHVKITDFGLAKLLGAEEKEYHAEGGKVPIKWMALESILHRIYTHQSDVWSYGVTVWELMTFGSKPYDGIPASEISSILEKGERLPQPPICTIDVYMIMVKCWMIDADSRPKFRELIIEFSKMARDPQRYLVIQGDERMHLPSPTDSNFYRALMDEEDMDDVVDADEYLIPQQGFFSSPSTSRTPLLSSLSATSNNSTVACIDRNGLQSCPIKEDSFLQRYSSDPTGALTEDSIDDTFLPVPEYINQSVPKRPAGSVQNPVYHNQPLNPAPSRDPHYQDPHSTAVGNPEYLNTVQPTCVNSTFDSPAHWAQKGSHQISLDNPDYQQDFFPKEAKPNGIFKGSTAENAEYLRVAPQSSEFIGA
Sequence of Ba/F3 EGFR-V769_D770insASV (P00533 with tags, fused parts or gaps DUP767-769): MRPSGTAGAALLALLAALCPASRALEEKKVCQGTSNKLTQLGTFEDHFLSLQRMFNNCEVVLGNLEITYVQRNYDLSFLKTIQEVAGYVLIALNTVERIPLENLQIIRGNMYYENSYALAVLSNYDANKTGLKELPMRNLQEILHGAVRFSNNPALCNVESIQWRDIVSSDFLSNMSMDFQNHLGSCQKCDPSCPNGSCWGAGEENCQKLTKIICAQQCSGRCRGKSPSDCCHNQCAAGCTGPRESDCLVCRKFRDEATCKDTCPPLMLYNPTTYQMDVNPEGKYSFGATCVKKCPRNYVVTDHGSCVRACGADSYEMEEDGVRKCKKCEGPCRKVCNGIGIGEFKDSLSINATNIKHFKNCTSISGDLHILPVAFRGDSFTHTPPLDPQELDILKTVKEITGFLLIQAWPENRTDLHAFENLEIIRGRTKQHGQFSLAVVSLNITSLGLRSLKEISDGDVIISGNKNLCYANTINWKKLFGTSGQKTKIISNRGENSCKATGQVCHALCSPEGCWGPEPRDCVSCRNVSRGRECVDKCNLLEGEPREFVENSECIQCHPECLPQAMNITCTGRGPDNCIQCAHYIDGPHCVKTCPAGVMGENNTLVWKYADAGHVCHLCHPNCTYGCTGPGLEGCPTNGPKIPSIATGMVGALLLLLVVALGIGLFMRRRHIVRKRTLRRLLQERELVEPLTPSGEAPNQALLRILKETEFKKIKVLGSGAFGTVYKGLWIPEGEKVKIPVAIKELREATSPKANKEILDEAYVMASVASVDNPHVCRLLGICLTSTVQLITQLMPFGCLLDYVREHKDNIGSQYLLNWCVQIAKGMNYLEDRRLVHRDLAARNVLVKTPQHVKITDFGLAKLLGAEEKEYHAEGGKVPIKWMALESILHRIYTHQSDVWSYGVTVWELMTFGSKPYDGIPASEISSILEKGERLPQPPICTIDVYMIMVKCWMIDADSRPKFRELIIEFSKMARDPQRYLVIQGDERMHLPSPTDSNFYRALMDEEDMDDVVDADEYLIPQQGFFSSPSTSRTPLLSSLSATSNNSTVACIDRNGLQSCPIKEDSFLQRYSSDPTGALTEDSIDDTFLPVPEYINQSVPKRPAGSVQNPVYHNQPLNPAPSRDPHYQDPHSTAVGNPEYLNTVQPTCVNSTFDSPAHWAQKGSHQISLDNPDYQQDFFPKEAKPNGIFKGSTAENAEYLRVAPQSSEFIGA

IC50 (A431 (EGFR-WT)) [nM]	GI50 [1] [nM]	GI50 [2] [nM]	SMILES
14.1	9.8	8	C=CC(=O)Nc1cc(Nc2ncc(C(=O)OC(C)C)c(N3CC4(CC4)c4ncccc43)n2)c(OC)cc1N1CCC[C@@H]1CN(C)C [Example 86, isopropyl (R)-2-((5-acrylamido-4-(2-((dimethyl-amino)methyl)pyrrolidin-1-yl)-2-meth-oxyphenyl)amino)-4-(spiro(cyclopro-pane-1,3′-pyrrolo[3,2-b]pyridin)-1′(2′H)-yl)pyrimidine-5-carboxylate]
1070	36		C=CC(=O)Nc1cc(Nc2ncc(C(=O)OC(C)C)c(N3CC(C)(C)c4nc(C)ccc43)n2)c(OC)nc1N1CC[C@@H](N(C)C)C1 [Example 35, isopropyl (R)-2-((5-acrylamido-6-(3-(dimethyl-amino)pyrrolidin-1-yl)-2-methoxy-pyridin-3-yl)amino)-4-(3,3,5-trimethyl-2,3-dihydro-1H-pyrrolo[3,2-b]pyridin-1-yl)pyrimidine-5-carboxylate]
	16.9	27.2	C=CC(=O)Nc1cc(Nc2ncc(C(=O)OC(C)C)c(N3CC(C)(C)c4nc(C)ccc43)n2)c(OC)cc1N(C)CCN1CCCC1 [Example 66, isopropyl 2-((5-acrylamido-2-methoxy-4-(methyl(2-(pyrrolidin-1-yl)ethyl)amino)phenyl)amino)-4-(3,3,5-trimethyl-2,3-dihydro-1H-pyrrolo[3,2-b]pyridin-1-yl)pyrimidine-5-carboxylate]
	135		C=CC(=O)Nc1cc(Nc2ncc(C(=O)OC(C)C)c(N3CC(C)(C)c4nc(C(F)(F)F)ccc43)n2)c(OC)cc1N(C)CCN(C)C [Example 17, isopropyl 2-((5-acrylamido-4-((2-(dimethylami-no)ethyl)(methyl)amino)-2-methoxy-phenyl)amino)-4-(3,3-dimethyl-5-(trifluoromethyl)-2,3-dibydro-1H-pyrrolo[3,2-b]pyridin-1-yl)pyrimidine-5-carboxylate]
	443		C=CC(=O)Nc1cc(Nc2ncc(C(=O)OC(C)C)c(N3CC(C)(C)c4nc(C)ccc43)n2)c(OC)cc1N1CCN(CC)CC1 [Example 34, isopropyl 2-((5-acrylamido-4-(4-ethylpiperazin-1-yl)-2-methoxyphenyl)amino)-4-(3,3,5-trimethyl-2,3-dihydro-1H-pyrrolo[3,2-b]pyridin-1-yl)pyrimidine-5-carboxylate]
	30.6		[2H]C([2H])([2H])N(CCN(C)C)c1cc(OC)c(Nc2ncc(C(=O)OC(C)C)c(N3CC4(CC4)c4nc(C)ccc43)n2)cc1NC(=O)C=C [Example 68, isopropyl 2-((5-acrylamino-4-((2-(dimethylami-no)ethyl)(methyl-d3)amino)-2-methoxyphenyl)amino)-4-(5′-methylspiro(cyclopropane-1,3′-pyrrolo[3,2-b]pyridin)-1′(2′H)-yl)pyrimidine-5-carboxylate]
580	14.1		[2H]C([2H])([2H])Oc1cc(N(C)CCN(C)C)c(NC(=O)C=C)cc1Nc1ncc(C(=O)OC(C)C)c(N2CC(C)(C)c3nc(C)ccc32)n1 [Example 27, isopropyl 2-((5-acrylamido-4-((2-(dimethylami-no)ethyl)(methyl)amino)-2-(methoxy-d3)phenyl)amino)-4-(3,3,5-trimethyl-2,3-dihydro-1H-pyrrolo[3,2-b]pyridin-1-yl)pyrimidine-5-carboxylate]
	50.8		C=CC(=O)Nc1cc(Nc2ncc(C(=O)OC(C)C)c(N3CC(C)(C)c4nc(C#CC5CC5)ccc43)n2)c(OC)cc1N(C)CCN(C)C [Example 18, isopropyl 2-((5-acrylamido-4-((2-(dimethylami-no)ethyl)(methyl)amino)-2-methoxy-phenyl)amino)-4-(5-(cyclo-propylethynyl)-3,3-dimethyl-2,3-dihydro-1H-pyrrolo[3,2-b]pyridin-1-yl)pyrimidine-5-carboxylate]
	44.9		C=CC(=O)Nc1cc(Nc2ncc(C(=O)OC(C)C)c(N3CC(C)(C)c4nc5c(cc43)CCC5)n2)c(OC)cc1N(C)CCN(C)C [Example 80, isopropyl 2-((5-acrylamido-4-((2-(dimethylami-no)ethyl)(methyl)amino)-2-methoxy-phenyl)amino)-4-(3,3-dimethyl-3,5,6,7-tetrahydrocyclopenta[b]pyrrolo[2,3-e]pyridin-1(2H)-yl)pyrimidine-5-carboxylate]
	26.9	35.2	[2H]C([2H])([2H])N(CCN(C([2H])([2H])[2H])C([2H])([2H])[2H])c1cc(OC)c(Nc2ncc(C(=O)OC(C)C)c(N3CC4(CC4)c4nc(C)ccc43)n2)cc1NC(=O)C=C [Example 69, isopropyl 2-((5-acrylamido-4-((2-(bis(methyl-d3)amino)ethyl)(methyl-d3)amino)-2-methoxyphenyl)amino)-4-(5′-methylspiro(cyclopropane-1,3′-pyrrolo[3,2-b]pyridin)-1′(2′H)-yl)pyrimidine-5-carboxylate]
	72.9		C=CC(=O)Nc1cc(Nc2ncc(C(=O)OC(C)C)c(N3CC(C)(C)c4nc(C)ccc43)n2)c(OCC)cc1N(C)CCN(C)C [Example 37, isopropyl 2-((5-acrylamido-4-((2-(dimethylami-no)ethyl)(methyl)amino)-2-ethoxy-phenyl)amino)-4-(3,3,5-trimethyl-2,3-dihydro-1H-pyrrolo[3,2-b]pyridin-1-yl)pyrimidine-5-carboxylate]
	545		C=CC(=O)Nc1cc(Nc2ncc(C(=O)OC(C)C)c(N3CC(C)(C)c4nc(C)ccc43)n2)c(OC)cc1N1CCN(C2CC2)CC1 [Example 39, isopropyl 2-((5-acrylamido-4-(4-cyclopropyl-piperazin-1-yl)-2-methoxy-phenyl)amino)-4-(3,3,5-trimethyl-2,3-dihydro-1H-pyrrolo[3,2-b]pyridin-1-yl)pyrimidine-5-carboxylate]
	44.4		C=CC(=O)Nc1cc(Nc2ncc(C(=O)OC(C)C)c(N3CC(C)(C)c4nc(C)ccc43)n2)c(OC2CC2)cc1N(C)CCN(C)C [Example 32, isopropyl 2-((5-acrylamido-2-cyclopropoxy-4-((2-(dimethylamino)ethyl)(methyl)ami-no)phenyl)amino)-4-(3,3,5-trimethyl-2,3-dihydro-1H-pyrrolo[3,2-b]pyridin-1-yl)pyrimidine-5-carboxylate]
213	36.3		C=CC(=O)Nc1cc(Nc2ncc(C(=O)OC(C)C)c(N3CC(C)(C)c4nc(C)ccc43)n2)c(OC)cc1N(C)C[C@@H]1CCCN1C [Example 41, isopropyl (S)-2-((5-acrylamido-2-methoxy-4-(methyl((1-methylpyrrolidin-2-yl)methyl)amino)phenyl)amino)-4-(3,3,5-trimethyl-2,3-dihydro-1H-pyrrolo[3,2-b]pyridin-1-yl)pyrimidine-5-carboxylate]
	339		C=CC(=O)Nc1cc(Nc2ncc(C(=O)OC(C)C)c(N3CC(C)(C)c4nc(N5CCC5)ccc43)n2)c(OC)cc1N(C)CCN(C)C [Example 38, isopropyl 2-((5-acrylamido-4-((2-(dimethylami-no)ethyl)(methyl)amino)-2-methoxy-phenyl)amino)-4-(5-(azetidin-1-yl)-3,3-dimethyl-2,3-dihydro-1H-pyrrolo[3,2-b]pyridin-1-yl)pyrimidine-5-carboxylate]
163	59.5		C=CC(=O)Nc1cc(Nc2ncc(C(=O)OC(C)C)c(N3CC(C)(C)c4nc(C5CC5)ccc43)n2)c(OC)cc1N(C)CCN(C)C [Example 4, isopropyl 2-((5-acrylamido-4-((2-(dimethylami-no)ethyl)(methyl)amino)-2-methoxy-phenyl)amino)-4-(5-cyclopropyl-3,3-dimethyl-2,3-dihydro-1H-pyrrolo[3,2-b]pyridin-1-yl)pyrimidine-5-carboxylate]
